# Test results published in article PMC4967898, “Peptides interfering with protein-protein interactions in the ethylene signaling pathway delay tomato fruit ripening” (Scientific Reports, 2016).
# Entries after “also recorded” stand apart in the source; their conditions may differ.
# Key:
# [1] = system: green, immature tomato fruits; assay: Tomato fruit ripening after inhibitor treatment; format: in vivo, tomato (Solanum pimpinellifolium); conditions: for delay in maturation of tomato fruits: 200 μM, all tested inhibitors and all applications of NOP-1 (injection, incubation, surface application), documented for 20 days, three fruits per application
# Source text: To further investigate the potential of NOP-1 for agricultural applications, we tested the effect of the NOP-1 peptide on tomato fruit ripening in comparison to other known inhibitors of ethylene responses. To this end we tested […] (MCP) and aminoethoxyvinylglycine (AVG). MCP is a known inhibitor of ethylene signaling blocking ethylene binding at the receptor proteins, whereas AVG blocks ethylene production in the plant by competitive inhibition of ACC synthases. To monitor inhibition of the fruit ripening process, we treated green, immature tomato fruits with 200 μM NOP-1, MCP or AVG, respectively and documented the fruit ripening process for 20 days. Figure 3 compares the effect of the different inhibitor treatments on tomato fruits to controls lacking the inhibitory treatment that contain either buffer alone or a random sequence control peptide (ROP-1). […] The bioassays underline the high inhibitory potential of NOP-1 on the ripening process compared to the well-known and efficient inhibitors of ethylene responses.
# Inhibitor-treatment of tomato fruits
# Aminoethoxyvinyl glycine (AVG) was purchased from Sigma-Aldrich, St Louis, MO (purity ~95%). SmartFresh^SM (AgroFresh, Spring House, PA) was used as sugar-based powder formulation of 1-MCP. Concentration of 1-MCP was calculated according to the percentage of active ingredient (0.14%) and release from the SmartFresh^SM powder. For comparison concentration of all inhibitors are expressed in terms of molarity. For treatment of tomato fruits with NOP-1, AVG and MCP, inhibitors were dissolved in the FRET buffer described in the previous section to a final concentration of 200 μM. Green tomato fruits (Solanum pimpinellifolium) from the same estimated developmental stage were harvested from the panicle and water-cleaned. 300 μL of the inhibitor solution was applied onto the tomato surface with a brush and the fruits were air-dried for 30 min. As an alternative application, tomato fruits were plunged into 2 mL of the inhibitor solution and incubated for 30 min in this solution or 200 μL of the peptide-containing solution were carefully injected into the tomato tissue by a hypodermic syringe. Three individual tomato fruits were treated for the different applications of the peptide in order to document the ripening process. After inhibitor-treatment tomato fruits were transferred to a vial closed with aluminum foil and stored in the dark at room temperature. Maturation process was documented every second day for at least 20 days. For measurement of ethylene production, green tomato fruits were treated as described above.
# [2] = Fluorescence of the dyes on their own (FRET control); conditions: 100 μM peptide; free dyes
# Source text: (§1) For this purpose, we made use of a fluorescence resonance energy transfer (FRET)-based in vitro assay, originally established for the respective Arabidopsis signaling proteins. Recombinant ethylene proteins LeETR1 and LeEIN2^462–1316 were labeled with fluorescent Alexa dyes[36] as described in the Methods section. LeETR1 was labeled with Alexa Fluor 488, while LeEIN2^462–1316 was labeled with Alexa Fluor 568. As the emission spectrum of the donor fluorophore partially overlaps with the excitation spectrum of the acceptor fluorophore, the dyes form a FRET pair and energy transfer from the donor to the acceptor fluorophore is possible when both probes get in close proximity. […] Formation of the complex is monitored by FRET from the donor molecule Alexa Fluor 488 to the acceptor molecule Alexa Fluor 568. Processes or molecules that prevent complex formation result in a reduced FRET from the donor to the acceptor, which is detected as reduced acceptor fluorescence at the emission maximum.
# (b) Calculation of IC50 value for NOP-1. Data were obtained in the FRET-assay in presence of increasing concentrations of NOP-1 peptide. […] (c) Determination of Kd value of NOP-1 binding to LeETR1 based on MST is illustrated. MST-signal is plotted against the NOP-1 concentration. […] All data (a,b,c) represent the mean +/− standard deviation.
# tomato EIN2-ETR1 complex = target: T1, tomato EIN2-ETR1 complex (Solanum lycopersicum, UniProt Q41342); assay: FRET assay of LeEIN2-LeETR1 complex formation; format: biochemical; conditions: FRET assay; 100 μM peptide where stated; LeETR1-Alexa Fluor 488 and LeEIN2-Alexa Fluor 568, 3 μM each
# T1 construct: made in house; host or cells: E. coli BL21(DE3) with pRARE (LeEIN2 fragment); E. coli (LeETR1)
# T1 sequence (Q41342 1-754): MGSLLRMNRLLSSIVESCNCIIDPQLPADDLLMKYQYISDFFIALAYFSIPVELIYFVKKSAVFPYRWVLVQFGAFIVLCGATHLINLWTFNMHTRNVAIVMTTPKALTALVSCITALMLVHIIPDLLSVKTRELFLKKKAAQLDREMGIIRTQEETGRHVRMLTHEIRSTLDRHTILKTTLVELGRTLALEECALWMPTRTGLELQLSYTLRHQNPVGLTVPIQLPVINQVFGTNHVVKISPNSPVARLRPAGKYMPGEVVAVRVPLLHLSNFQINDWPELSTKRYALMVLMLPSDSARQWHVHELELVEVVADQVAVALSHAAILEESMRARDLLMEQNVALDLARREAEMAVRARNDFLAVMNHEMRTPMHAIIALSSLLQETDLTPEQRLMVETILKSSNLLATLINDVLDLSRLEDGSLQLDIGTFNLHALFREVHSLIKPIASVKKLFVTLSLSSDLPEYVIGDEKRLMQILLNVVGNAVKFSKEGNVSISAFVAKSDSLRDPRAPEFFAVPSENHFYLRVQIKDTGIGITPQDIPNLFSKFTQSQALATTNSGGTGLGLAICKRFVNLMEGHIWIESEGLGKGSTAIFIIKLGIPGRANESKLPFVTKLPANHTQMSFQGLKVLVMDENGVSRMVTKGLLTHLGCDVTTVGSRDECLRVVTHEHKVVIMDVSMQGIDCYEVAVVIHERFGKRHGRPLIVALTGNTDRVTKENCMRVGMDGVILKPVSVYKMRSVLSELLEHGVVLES
# Source text: as §1
# Quantitative analysis of inhibitory peptides on ETR1-EIN2 complex by FRET
# For the FRET assay, recombinant LeETR1 was labeled with Alexa Fluor 488 succinimidyl-ester and LeEIN2^462–1316 was labeled with Alexa Fluor 568 succinimidyl-ester (both Life Technologies) in a buffer containing 50 mM potassium phosphate pH 8.0, 300 mM NaCl and 5% (v/v) glycerol following manufacturer’s protocol (MolecularProbes Protein Labeling Kit). Labeled proteins were transferred in FRET buffer containing 50 mM Tris-HCl pH 8.0, 300 mM NaCl, 0.05% (v/v) Tween 20, 5% (v/v) glycerol and mixed at a final concentration of 3.0 μM each. […] The FRET-based binding assay was carried out in 384-well microplates using an Infinite M200 Pro microplate reader (Tecan) at 455 nm excitation wavelength. Emission spectra were detected between 565 nm to 645 nm. FRET efficiencies were calculated from the maximal emission in the absence and in the presence of the supplied peptides and the half maximal inhibitor concentration IC50 was calculated as previously described.
Compound,delay in maturation of tomato fruits [1] [days],"effect on tomato fruit ripening (in words) ([1]; compared with buffer or untreated control, inhibitors at 200 μM)",effect on fluorescence of the dyes on their own [2],effect on tomato EIN2-ETR1 complex formation (tomato EIN2-ETR1 complex)
"NCCO/C=C/[C@H](N)C(=O)O [AVG, aminoethoxyvinylglycine, reference compound]",10 to 15,–,–,–
"CC1=CC1 [MCP, 1-methylcyclopropane, reference compound]",10 to 15,–,–,–
"EFLYMSVN-NH2 [ROP-1, reference compound]",–,no effect on the ripening process; also recorded: A related delay in ripening was not observed,"not affected by the peptides; also recorded: Neither of both peptides affected fluorescence of the free, unlabeled dyes",no effect on tomato EIN2-ETR1 complex formation was observed
